Biological target: human ACSS2 protein (Homo sapiens (Human), UniProt Q9NR19)
Test: ACSS2 Cell-Free Activity Assay (Cell-Free IC50)
Settings: 10 nM human ACSS2 protein, 90 minutes at 37 C, pyrophosphatase-coupled, Biomol Green absorbance at 620 nm; read-out: ACSS2 Biochemical IC50
Source text: ACSS2 Cell-Free Activity Assay (Cell-Free IC50)

Chain of human ACSS2 protein (Q9NR19 whole entry): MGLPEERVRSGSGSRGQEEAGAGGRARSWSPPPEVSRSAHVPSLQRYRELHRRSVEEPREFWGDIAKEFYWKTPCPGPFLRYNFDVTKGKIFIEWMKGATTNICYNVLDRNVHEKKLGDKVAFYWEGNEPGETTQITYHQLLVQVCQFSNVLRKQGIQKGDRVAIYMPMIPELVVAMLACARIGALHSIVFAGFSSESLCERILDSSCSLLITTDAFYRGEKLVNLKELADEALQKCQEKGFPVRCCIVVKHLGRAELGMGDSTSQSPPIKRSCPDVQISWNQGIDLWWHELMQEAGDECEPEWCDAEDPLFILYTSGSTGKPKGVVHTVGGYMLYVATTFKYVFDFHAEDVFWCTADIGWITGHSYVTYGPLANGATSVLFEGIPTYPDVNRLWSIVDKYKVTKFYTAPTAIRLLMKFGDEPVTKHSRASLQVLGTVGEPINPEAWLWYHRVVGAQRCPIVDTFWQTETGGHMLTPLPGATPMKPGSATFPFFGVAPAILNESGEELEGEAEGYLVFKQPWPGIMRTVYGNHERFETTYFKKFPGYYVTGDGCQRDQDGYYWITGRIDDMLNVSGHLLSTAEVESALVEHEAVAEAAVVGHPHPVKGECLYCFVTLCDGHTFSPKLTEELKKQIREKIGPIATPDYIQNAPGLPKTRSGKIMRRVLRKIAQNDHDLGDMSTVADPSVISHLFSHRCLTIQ

IC50	Molecule
> 100 nM	CCC1(C(=O)Nc2cccc(C(C)(F)F)c2)C(=O)N(c2ccc(OC(F)F)c(-c3ccccc3)c2)N=C1C (stereo not shown) [Compound 100, N-(3-(1,1-difluoroethyl)phenyl)-1-(6-(difluoromethoxy)-[1,1′-biphenyl]-3-yl)-4-ethyl-3-methyl-5-oxo-4,5-dihydro-1H-pyrazole-4-carboxamide]
1 to 100 nM	CC1=NN(c2ccc(OC(F)F)cc2)C(=O)C1C(=O)Nc1cccc(C(F)(F)C2CCC2)c1 (stereo not shown) [Compound 101, N-(3-(cyclobutyldifluoromethyl)phenyl)-1-(4-(difluoromethoxy)phenyl)-3-methyl-5-oxo-4,5-dihydro-1H-pyrazole-4-carboxamide]
> 100 nM	CCC(F)(F)c1cccc(NC(=O)c2cc(C)nc(-c3ccc(OC(F)F)cc3)c2)c1 [Compound 102, 2-[4-(difluoromethoxy)phenyl]-N-[3-(1,1-difluoropropyl)phenyl]-6-methyl-pyridine-4-carboxamide]
> 100 nM	CCC(F)(F)c1cccc(NC(=O)c2nc(C)c(-c3ccc(OC(F)F)c(-c4ccccc4)c3)nc2C)c1 [Compound 103, 5-(6-(difluoromethoxy)-[1,1′-biphenyl]-3-yl)-N-(3-(1,1-difluoropropyl)phenyl)-3,6-dimethylpyrazine-2-carboxamide]
> 100 nM	Cc1nc(-c2ccc(OC(F)F)c(-c3ccccc3)c2)c(C)nc1C(=O)Nc1cccc(C(C)(F)F)c1 [Compound 104, N-(3-(1,1-difluoroethyl)phenyl)-5-(6-(difluoromethoxy)-[1,1′-biphenyl]-3-yl)-3,6-dimethylpyrazine-2-carboxamide]
> 100 nM	CCC(F)(F)c1cccc(NC(=O)c2nc(C)c(-c3ccc(OC(F)F)cc3)nc2C)c1 [Compound 105, 5-(4-(difluoromethoxy)phenyl)-N-(3-(1,1-difluoropropyl)phenyl)-3,6-dimethylpyrazine-2-carboxamide]
> 100 nM	Cc1oc(-c2ccc3cc[nH]c3c2)nc1C(=O)Nc1cccc(C(C)(F)F)c1 [Compound 107, N-[3-(1,1-difluoroethyl)phenyl]-2-(1H-indol-6-yl)-5-methyl-oxazole-4-carboxamide]
> 100 nM	Cc1c(C(=O)Nc2cccc(C(C)(F)F)c2)c(=O)n(-c2ccc3cc[nH]c3c2)n1Cc1ccccc1 [Compound 108, 1-benzyl-N-[3-(1,1-difluoroethyl)phenyl]-2-(1H-indol-6-yl)-5-methyl-3-oxo-pyrazole-4-carboxamide]
1 to 100 nM	CC1=NN(c2ccc(C=C(c3ccccc3)c3ccccc3)c(-c3cccnc3)c2)C(=O)C1C(=O)Nc1cccc(C(C)(F)F)c1 (stereo not shown) [Compound 109]
1 to 100 nM	CC1=NN(c2ccc(C=C(c3ccccc3)c3ccccc3)c(Br)c2)C(=O)C1C(=O)Nc1cccc(C(C)(F)F)c1 (stereo not shown) [Compound 110]
> 100 nM	CCCC1(C(=O)Nc2cccc(C(C)(F)F)c2)C(=O)N(c2ccc(OC(F)F)c(-c3ccccc3)c2)N=C1C (stereo not shown) [Compound 111, N-(3-(1,1-difluoroethyl)phenyl)-1-(6-(difluoromethoxy)-[1,1′-biphenyl]-3-yl)-3-methyl-5-oxo-4-propyl-4,5-dihydro-1H-pyrazole-4-carboxamide]
1 to 100 nM	CCC(F)(F)c1cccc(NC(=O)c2nc(-c3ccc(OC(F)F)cc3)oc2C)c1 [Compound 112, 2-(4-(difluoromethoxy)phenyl)-N-(3-(1,1-difluoropropyl)phenyl)-5-methyloxazole-4-carboxamide]
> 100 nM	Cc1oc(-c2ccc(OC(F)F)cc2)nc1C(=O)Nc1cccc(C(C)(F)F)c1 [Compound 113, N-(3-(1,1-difluoroethyl)phenyl)-2-(4-(difluoromethoxy)phenyl)-5-methyloxazole-4-carboxamide]
> 100 nM	CCC(F)(F)c1cccc(NC(=O)c2nc(-c3ccc(OC)cc3)oc2C)c1 [Compound 116, N-(3-(1,1-difluoropropyl)phenyl)-2-(4-methoxyphenyl)-5-methyloxazole-4-carboxamide]
> 100 nM	CCC(F)(F)c1cccc(NC(=O)c2nc(-c3ccc(OC(F)F)c(-c4ccccc4)c3)cnc2C)c1 [Compound 117, 6-[4-(difluoromethoxy)-3-phenyl-phenyl]-N-[3-(1,1-difluoropropyl)phenyl]-3-methyl-pyrazine-2-carboxamide]
> 100 nM	Cc1ncc(-c2ccc(OC(F)F)c(-c3ccccc3)c2)nc1C(=O)Nc1cccc(C(C)(F)F)c1 [Compound 118, N-[3-(1,1-difluoroethyl)phenyl]-6-[4-(difluoromethoxy)-3-phenyl-phenyl]-3-methyl-pyrazine-2-carboxamide]
> 100 nM	CCC(F)(F)c1cccc(NC(=O)c2cnc(-c3ccc(OC(F)F)c(-c4ccccn4)c3)nc2C)c1 [Compound 119, 2-(4-(difluoromethoxy)-3-(pyridin-2-yl)phenyl)-N-(3-(1,1-difluoropropyl)phenyl)-4-methylpyrimidine-5-carboxamide]
> 100 nM	Cc1nc(-c2ccc(OC(F)F)c(-c3ccccn3)c2)ncc1C(=O)Nc1cccc(C(C)(F)F)c1 [Compound 120, N-(3-(1,1-difluoroethyl)phenyl)-2-(4-(difluoromethoxy)-3-(pyridin-2-yl)phenyl)-4-methylpyrimidine-5-carboxamide]
1 to 100 nM	CCC(F)(F)c1cccc(NC(=O)C2C(=O)N(c3cc(Cc4ccccc4)c(OC)c(-c4ccccc4)c3)N=C2C)c1 (stereo not shown) [Compound 121, 1-(5-benzyl-6-methoxy-[1,1′-biphenyl]-3-yl)-N-(3-(1,1-difluoropropyl)phenyl)-3-methyl-5-oxo-4,5-dihydro-1H-pyrazole-4-carboxamide]
< 1 nM	COc1c(Cc2ccccc2)cc(N2N=C(C)C(C(=O)Nc3cccc(C(C)(F)F)c3)C2=O)cc1-c1ccccc1 (stereo not shown) [Compound 122, 1-(5-benzyl-6-methoxy-[1,1′-biphenyl]-3-yl)-N-(3-(1,1-difluoroethyl)phenyl)-3-methyl-5-oxo-4,5-dihydro-1H-pyrazole-4-carboxamide]
> 100 nM	CCC(F)(F)c1cccc(NC(=O)c2nc(-c3ccc(OC(F)F)c(-c4ccccc4)c3)oc2C)c1 [Compound 123, 2-[4-(difluoromethoxy)-3-phenyl-phenyl]-N-[3-(1,1-difluoropropyl)phenyl]-5-methyl-oxazole-4-carboxamide]
> 100 nM	Cc1oc(-c2ccc(OC(F)F)c(-c3ccccc3)c2)nc1C(=O)Nc1cccc(C(C)(F)F)c1 [Compound 124, N-[3-(1,1-difluoroethyl)phenyl]-2-[4-(difluoromethoxy)-3-phenyl-phenyl]-5-methyl-oxazole-4-carboxamide]
> 100 nM	CCC(F)(F)c1cccc(NC(=O)c2nc(-c3ccc(OC(F)F)cc3)cnc2C)c1 [Compound 125, 6-(4-(difluoromethoxy)phenyl)-N-(3-(1,1-difluoropropyl)phenyl)-3-methylpyrazine-2-carboxamide]
> 100 nM	Cc1ncc(-c2ccc(OC(F)F)cc2)nc1C(=O)Nc1cccc(C(C)(F)F)c1 [Compound 126, N-(3-(1,1-difluoroethyl)phenyl)-6-(4-(difluoromethoxy)phenyl)-3-methylpyrazine-2-carboxamide]

Molecule	IC50
1-(4-(difluoromethoxy)phenyl)-3-methyl-4-(1-((4-(methylsulfonyl)phenyl)amino)-1H-1,2,3-triazol-4-yl)-1H-pyrazol-5(4H)-one [Compound 195]	> 100 nM

Reference: patent US12441689B2 (EpiVario, Inc., priority 2019, dated 2025)
